Results: ChEMBL document CHEMBL2203219, “Discovery and evolution of phenoxypiperidine hydroxyamide dual CCR3/H₁ antagonists. Part II: optimising in vivo clearance” (Bioorg Med Chem Lett, 2012)

How the values were obtained:
[1] = in vitro; details: human
[2] = physchem; details: octanol/water
[3] = in vitro; details: rat, hepatocytes
[4] = in vivo; details: rat, iv
[5] = Oral bioavailability in rat; format: ADME, organism-based; details: in vivo
[6] = in vivo; details: rat, iv; remark: listed apart in the source
[7] = in vivo; details: rat, iv; remark: listed apart in the source
[8] = Oral bioavailability in dog; format: ADME, organism-based, Canis lupus familiaris; details: in vivo
[9] = in vivo; details: dog
[10] = in vivo; details: dog; remark: listed apart in the source
[11] = species: Rattus norvegicus; details: in vivo, iv

| Compound | microsomal CLint ([1]; liver microsomes) [µL/min/mg] | logD [2] | hepatocyte CLint [3] [µL/min/1e6 cells] | also measured |
| --- | --- | --- | --- | --- |
| O=C(NC[C@@H](O)CN1CCC(Oc2ccc(Cl)c(Cl)c2)CC1)c1c[nH]c(=O)c2cc(S(=O)(=O)NCCO)ccc12 | – | – | 5 | – |
| O=C(NC[C@@H](O)CN1CCC(Oc2ccc(Cl)c(Cl)c2)CC1)c1c[nH]c(=O)c2cc(S(=O)(=O)NC3CC3)ccc12 | 21 | – | 6 | – |
| O=C(NC[C@@H](O)CN1CCC(Oc2ccc(Cl)c(Cl)c2)CC1)c1c[nH]c(=O)c2cc(S(=O)(=O)N3CCC3)ccc12 | – | – | 7 | microsomal CLint ([1]; microsomes): < 3 µL/min/mg |
| CC1(O)CN(S(=O)(=O)c2ccc3c(C(=O)NC[C@@H](O)CN4CCC(Oc5ccc(Cl)c(Cl)c5)CC4)c[nH]c(=O)c3c2)C1 | 18 | 2.5 | 3 | – |
| O=C(NC[C@@H](O)CN1CCC(Oc2ccc(Cl)c(Cl)c2)CC1)c1c[nH]nc1C(F)(F)F | < 3 | – | 3 | bioavailability [5]: 36%; half-life [6]: 6 h; clearance [7]: 22 mL/min/kg |
| Cc1cc(Cl)ccc1OC1CCN(C[C@H](O)CNC(=O)c2c[nH]nc2C(F)(F)F)CC1 | – | – | 5 | microsomal CLint ([1]; microsomes): < 3 µL/min/mg |
| Cc1c(Cl)ccc(OC2CCN(C[C@H](O)CNC(=O)c3c[nH]nc3C(F)(F)F)CC2)c1Cl | < 3 | – | 6 | – |
| O=C(NC[C@@H](O)CN1CCC(Oc2ccc(Cl)c(Cl)c2)CC1)c1c[nH]nc1C1CC1 | 9 | – | < 3 | – |
| O=C(NC[C@@H](O)CN1CCC(Oc2ccc(Cl)c(Cl)c2)CC1)c1c[nH]c(=O)cc1C(F)(F)F | < 3 | – | 4 | bioavailability [5]: < 10%; bioavailability [8]: 63% |
| Cc1cc(Cl)ccc1OC1CCN(C[C@H](O)CNC(=O)c2c[nH]c(=O)cc2C(F)(F)F)CC1 | 3 | – | < 3 | – |
| Cc1c(Cl)ccc(OC2CCN(C[C@H](O)CNC(=O)c3c[nH]c(=O)cc3C(F)(F)F)CC2)c1Cl | 6 | – | 3 | – |
| Cn1cc(C(=O)NC[C@@H](O)CN2CCC(Oc3ccc(Cl)c(Cl)c3)CC2)c(C(F)(F)F)cc1=O | – | – | < 3 | microsomal CLint ([1]; microsomes): 5 µL/min/mg; bioavailability [5]: 53%; half-life [9]: 10.8 h; half-life [6]: 9.7 h; bioavailability [8]: 81%; clearance [7]: 9 mL/min/kg; clearance [10]: 8 mL/min/kg |
| O=C(NC[C@@H](O)CN1CCC(Oc2ccc(Cl)c(Cl)c2)CC1)c1c[nH]c(=O)c2ccccc12 | – | – | – | bioavailability [5]: 11%; bioavailability [8]: 40% |
| CS(=O)(=O)c1ccc2c(C(=O)NC[C@@H](O)CN3CCC(Oc4ccc(C#N)c(Cl)c4)CC3)c[nH]c(=O)c2c1 | – | 1.4 | – | – |

Now from value to compound, other results behind:

| microsomal CLint ([1]; liver microsomes) [µL/min/mg] | logD [2] | hepatocyte CLint [3] [µL/min/1e6 cells] | Compound | also measured |
| --- | --- | --- | --- | --- |
| 14 | 2.4 | 7 | Cc1cc(Cl)ccc1OC1CCN(C[C@H](O)CNC(=O)c2c[nH]c(=O)c3cc(S(C)(=O)=O)ccc23)CC1 | – |
| 7 | – | 8 | Cc1cc(Cl)ccc1OC1CCN(C[C@H](O)CNC(=O)c2c[nH]c(=O)c3ccc(S(C)(=O)=O)cc23)CC1 | – |
| – | 3.2 | – | O=C(NC[C@@H](O)CN1CCC(Oc2ccc(Cl)c(Cl)c2)CC1)c1c[nH]c(=O)c2cc(F)ccc12 | Vd [4]: 6.4 L/kg |
| 9 | – | < 3 | Cc1cc(Cl)ccc1OC1CCN(C[C@H](O)CNC(=O)c2c[nH]c(=O)c3cc(F)ccc23)CC1 | – |
| 8 | 3.9 | 5 | O=C(NC[C@@H](O)CN1CCC(Oc2ccc(Cl)c(Cl)c2)CC1)c1c[nH]c(=O)c2ccc(F)cc12 | – |
| < 3 | – | < 3 | NS(=O)(=O)c1ccc2c(C(=O)NC[C@@H](O)CN3CCC(Oc4ccc(Cl)c(Cl)c4)CC3)c[nH]c(=O)c2c1 | – |
| < 3 | 2.8 | < 3 | Cc1c(Cl)ccc(OC2CCN(C[C@H](O)CNC(=O)c3c[nH]c(=O)c4ccc(S(C)(=O)=O)cc34)CC2)c1Cl | – |
| 14 | 2.8 | < 3 | CNS(=O)(=O)c1ccc2c(C(=O)NC[C@@H](O)CN3CCC(Oc4ccc(Cl)c(Cl)c4)CC3)c[nH]c(=O)c2c1 | – |
| 86 | 3.1 | 10 | CN(C)S(=O)(=O)c1ccc2c(C(=O)NC[C@@H](O)CN3CCC(Oc4ccc(Cl)c(Cl)c4)CC3)c[nH]c(=O)c2c1 | – |
| 6 | 3.2 | < 3 | O=C(NC[C@@H](O)CN1CCC(Oc2ccc(Cl)c(Cl)c2)CC1)c1c[nH]c(=O)c2c(F)cccc12 | – |
| 9 | 3 | 7 | Cc1cc(Cl)ccc1OC1CCN(C[C@H](O)CNC(=O)c2c[nH]c(=O)c3c(F)cccc23)CC1 | – |
| 18 | 1.5 | 2 | NC(=O)c1c(OC2CCN(C[C@H](O)CNC(=O)c3c[nH]c(=O)c4ccccc34)CC2)ccc(Cl)c1Cl | bioavailability [5]: < 5%; CL [11]: 0.0086 mL/min/kg |
| 18 | – | 6 | N#Cc1ccc(OC2CCN(C[C@H](O)CNC(=O)c3c[nH]c(=O)c4ccccc34)CC2)cc1 | – |
| 22 | 2.6 | 10 | N#Cc1ccc(OC2CCN(C[C@H](O)CNC(=O)c3c[nH]c(=O)c4ccccc34)CC2)cc1Cl | – |
| – | – | 3 | CS(=O)(=O)c1ccc2c(C(=O)NC[C@@H](O)CN3CCC(Oc4ccc(Cl)c(Cl)c4)CC3)c[nH]c(=O)c2c1 | – |
| 13 | 2.8 | 12 | Cc1c(Cl)ccc(OC2CCN(C[C@H](O)CNC(=O)c3c[nH]c(=O)c4cc(S(C)(=O)=O)ccc34)CC2)c1Cl | – |
